From patent US9592223B2, “Small molecule inhibitors of MALT1” (Cornell University, priority 2012, dated 2017)
Where two headings read alike, the source gives them in different places.

Assays:
[1] = test system: c-REL; test: c-REL flow cytometry of whole cells or isolated nuclei, HBL-1 cells; type: cell-based, human; conditions: 200 nM MI-2 or 50 μM Z-VRPR-FMK, 24 hr
Experimental: MALT1 mediates c-REL translocation to the nucleus following BCR stimulation (Ferch et al., 2007). […] This selectivity towards c-REL had also been previously shown in MALT1 knockout mice and after MALT1 cleavage inhibition by the MALT1 blocking peptide Z-VRPR-FMK (Ferch et al., 2009; Ferch et al., 2007; Hailfinger et al., 2011).
[…] was studied by flow cytometry. Cells were treated as indicated and total cells or isolated nuclei were prepared and stained for c-REL. Total cells were fixed and permeabilized using the Intrastain kit from Dako (Glostrup, Denmark). For nuclei extraction, cells were resuspended in cold nuclei extraction buffer (320 mM sucrose, 5 mM MgCl2, 10 mM HEPES, 1% Triton X-100 at pH 7.4), incubated for 10 min on ice and washed twice with nuclei wash buffer (320 mM sucrose, 5 mM MgCl2, 10 mM HEPES at pH 7.4, no Triton X-100). Nuclei yield and integrity were confirmed by microscopic examination with trypan blue staining. For labeling, nuclei wash buffer was supplemented with 1% BSA, 0.1% sodium azide and 1:100 c-REL antibody (Cell Signaling). Cells were washed then incubated with Alexa Fluor-488 conjugated secondary antibodies from Invitrogen. Cells were washed again and stained with DAPI followed by flow cytometry.

[2] = test system: TMD8 cells; test: Growth inhibition, ATP-based luminescent assay; type: cell-based; conditions: Homo sapiens
Experimental: Cell proliferation was determined by ATP quantification using a luminescent method (CellTiter-Glo, Promega, Madison, Wis.) and Trypan blue dye-exclusion (Sigma, St. Louis, Mo.). Cell viability in drug-treated cells was normalized to their respective controls (fractional viability) and results are given as 1-fractional viability. CompuSyn software (Biosoft, Cambridge, UK) was used to determine drug concentrations inhibiting fractional growth compared to controls.
DLBCL cell lines were grown in exponential growth conditions during the 48 hr of treatment. Cell proliferation was determined by ATP quantification using a luminescent method (CellTiter-Glo, Promega, Madison, Wis.) and Trypan blue dye-exclusion (Sigma, St. Louis, Mo.). Luminescence was measured using the Synergy4 microplate reader (BioTek Instruments, Winooski, Vt.). Standard curves for each cell line were calculated by plotting the cell number (determined by the Trypan blue method) against their luminescence values and number of cells was calculated accordingly. Cell viability in drug-treated cells was normalized to their respective controls (fractional viability) and results are given as 1-fractional viability. […] Experiments were performed in triplicate.

## COCCOc1nc(-c2ccc(Cl)c(Cl)c2)n(-c2ccc(NC(=O)CCl)cc2)n1 [MI-2]
[1]; isolated nuclei
  nuclear c-REL: reduced nuclear c-REL
[1]; whole cells
  whole cell c-REL: without affecting whole cell levels
[2]; TMD8, read-out: GI50 concentration
  GI50: 500 nM
[2]; TMD8, single dose, 48 hr, read-out: GI50
  GI50: 500 nM
